From paper PMC9030254, “Target Hopping from Protein Kinases to PXR: Identification of Small-Molecule Protein Kinase Inhibitors as Selective Modulators of Pregnane X Receptor from TüKIC Library” (Cells, 2022)

How the values were obtained:
Test in all cases: Kinase profiling
Format in all cases: biochemical
DYRK3 = molecular target: T1, DYRK3 (Homo sapiens, UniProt O43781)
T1 construct: purchased ProQinase (Freiburg, Germany)
T1 sequence (O43781 1-588): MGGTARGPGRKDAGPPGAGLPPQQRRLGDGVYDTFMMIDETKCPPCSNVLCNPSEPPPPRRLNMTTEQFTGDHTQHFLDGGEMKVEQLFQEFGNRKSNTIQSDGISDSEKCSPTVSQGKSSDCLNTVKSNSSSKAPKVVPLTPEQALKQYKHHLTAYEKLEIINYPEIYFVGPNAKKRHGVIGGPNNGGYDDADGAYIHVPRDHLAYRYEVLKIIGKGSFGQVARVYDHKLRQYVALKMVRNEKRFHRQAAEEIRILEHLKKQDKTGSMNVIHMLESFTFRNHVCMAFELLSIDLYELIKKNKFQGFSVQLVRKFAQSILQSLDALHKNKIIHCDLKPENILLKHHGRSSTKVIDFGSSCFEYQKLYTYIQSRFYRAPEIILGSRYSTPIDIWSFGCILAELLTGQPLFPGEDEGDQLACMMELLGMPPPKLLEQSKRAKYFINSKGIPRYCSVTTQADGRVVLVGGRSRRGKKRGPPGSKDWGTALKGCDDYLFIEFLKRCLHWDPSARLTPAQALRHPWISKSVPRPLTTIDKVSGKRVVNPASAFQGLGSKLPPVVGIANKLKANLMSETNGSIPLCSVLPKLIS
Method: (§1) The analysis was performed by ProQinase (Freiburg, Germany).

EIF2AK3 = molecular target: T2, EIF2AK3 (Homo sapiens, UniProt Q9NZJ5)
T2 construct: purchased ProQinase (Freiburg, Germany)
T2 sequence (Q9NZJ5 30-1116): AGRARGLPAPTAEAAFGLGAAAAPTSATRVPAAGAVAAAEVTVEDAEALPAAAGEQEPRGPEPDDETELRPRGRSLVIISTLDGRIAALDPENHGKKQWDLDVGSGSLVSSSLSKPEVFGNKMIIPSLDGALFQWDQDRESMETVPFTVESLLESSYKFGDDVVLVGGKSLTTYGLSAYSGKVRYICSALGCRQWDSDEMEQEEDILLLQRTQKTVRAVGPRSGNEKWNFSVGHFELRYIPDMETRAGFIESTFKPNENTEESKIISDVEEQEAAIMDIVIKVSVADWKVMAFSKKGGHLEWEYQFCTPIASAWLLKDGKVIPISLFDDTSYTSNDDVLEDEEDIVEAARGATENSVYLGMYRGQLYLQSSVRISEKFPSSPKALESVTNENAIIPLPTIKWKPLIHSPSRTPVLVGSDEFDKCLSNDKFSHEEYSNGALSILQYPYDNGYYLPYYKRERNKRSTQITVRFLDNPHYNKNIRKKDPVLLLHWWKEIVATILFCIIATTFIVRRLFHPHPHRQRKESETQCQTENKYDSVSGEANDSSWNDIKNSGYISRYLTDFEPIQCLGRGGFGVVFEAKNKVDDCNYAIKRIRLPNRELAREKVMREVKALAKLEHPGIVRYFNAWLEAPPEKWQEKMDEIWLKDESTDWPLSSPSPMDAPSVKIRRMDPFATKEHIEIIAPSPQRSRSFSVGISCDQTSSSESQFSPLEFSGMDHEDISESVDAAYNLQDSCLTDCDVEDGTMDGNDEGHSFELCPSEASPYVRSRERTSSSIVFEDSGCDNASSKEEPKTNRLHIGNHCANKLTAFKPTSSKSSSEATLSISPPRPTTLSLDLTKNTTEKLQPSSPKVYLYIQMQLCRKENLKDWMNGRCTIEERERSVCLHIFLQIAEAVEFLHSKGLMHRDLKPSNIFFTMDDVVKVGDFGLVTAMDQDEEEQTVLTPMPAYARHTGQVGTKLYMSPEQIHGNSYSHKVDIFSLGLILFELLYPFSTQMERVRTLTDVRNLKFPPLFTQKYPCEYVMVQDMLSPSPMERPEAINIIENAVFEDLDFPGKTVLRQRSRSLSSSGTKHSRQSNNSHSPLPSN
Method: as §1

HRI = molecular target: T3, HRI (Homo sapiens, UniProt Q9BQI3)
T3 construct: purchased ProQinase (Freiburg, Germany)
Method: as §1

MAP3K9 = molecular target: T4, MAP3K9 (Homo sapiens, UniProt P80192)
T4 construct: purchased ProQinase (Freiburg, Germany)
Method: as §1

MTOR = molecular target: T5, MTOR (Homo sapiens, UniProt P42345)
T5 construct: purchased ProQinase (Freiburg, Germany)
Method: as §1

RAF1 YDYD = molecular target: T6, RAF1 YDYD (Homo sapiens, UniProt P04049, Y340D/Y341D)
T6 construct: purchased ProQinase (Freiburg, Germany)
Method: as §1

TAOK3 = molecular target: T7, TAOK3 (Homo sapiens, UniProt Q9H2K8)
T7 construct: purchased ProQinase (Freiburg, Germany)
T7 sequence (Q9H2K8 1-898): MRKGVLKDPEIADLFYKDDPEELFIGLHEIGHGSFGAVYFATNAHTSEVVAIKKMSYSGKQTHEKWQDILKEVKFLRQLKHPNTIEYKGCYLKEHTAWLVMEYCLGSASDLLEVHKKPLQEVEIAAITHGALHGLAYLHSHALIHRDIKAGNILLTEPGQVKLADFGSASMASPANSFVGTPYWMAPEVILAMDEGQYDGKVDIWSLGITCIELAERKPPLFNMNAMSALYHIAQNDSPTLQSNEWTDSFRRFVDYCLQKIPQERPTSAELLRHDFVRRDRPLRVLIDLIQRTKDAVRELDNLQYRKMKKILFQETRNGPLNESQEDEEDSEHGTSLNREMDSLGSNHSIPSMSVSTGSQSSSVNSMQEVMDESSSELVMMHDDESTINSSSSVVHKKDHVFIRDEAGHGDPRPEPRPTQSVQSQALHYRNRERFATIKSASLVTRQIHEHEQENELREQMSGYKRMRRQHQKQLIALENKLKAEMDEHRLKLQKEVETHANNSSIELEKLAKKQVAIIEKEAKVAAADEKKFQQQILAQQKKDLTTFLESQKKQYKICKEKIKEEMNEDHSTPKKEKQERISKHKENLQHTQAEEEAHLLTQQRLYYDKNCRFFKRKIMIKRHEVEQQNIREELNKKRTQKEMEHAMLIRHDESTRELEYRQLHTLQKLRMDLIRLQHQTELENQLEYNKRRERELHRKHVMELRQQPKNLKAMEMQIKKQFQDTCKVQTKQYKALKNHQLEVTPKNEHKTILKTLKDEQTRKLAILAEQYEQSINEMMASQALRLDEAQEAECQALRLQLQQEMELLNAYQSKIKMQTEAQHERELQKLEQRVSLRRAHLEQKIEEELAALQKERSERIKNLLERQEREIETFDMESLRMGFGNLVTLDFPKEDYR
Method: as §1

T3 sequence (Q9BQI3 whole entry): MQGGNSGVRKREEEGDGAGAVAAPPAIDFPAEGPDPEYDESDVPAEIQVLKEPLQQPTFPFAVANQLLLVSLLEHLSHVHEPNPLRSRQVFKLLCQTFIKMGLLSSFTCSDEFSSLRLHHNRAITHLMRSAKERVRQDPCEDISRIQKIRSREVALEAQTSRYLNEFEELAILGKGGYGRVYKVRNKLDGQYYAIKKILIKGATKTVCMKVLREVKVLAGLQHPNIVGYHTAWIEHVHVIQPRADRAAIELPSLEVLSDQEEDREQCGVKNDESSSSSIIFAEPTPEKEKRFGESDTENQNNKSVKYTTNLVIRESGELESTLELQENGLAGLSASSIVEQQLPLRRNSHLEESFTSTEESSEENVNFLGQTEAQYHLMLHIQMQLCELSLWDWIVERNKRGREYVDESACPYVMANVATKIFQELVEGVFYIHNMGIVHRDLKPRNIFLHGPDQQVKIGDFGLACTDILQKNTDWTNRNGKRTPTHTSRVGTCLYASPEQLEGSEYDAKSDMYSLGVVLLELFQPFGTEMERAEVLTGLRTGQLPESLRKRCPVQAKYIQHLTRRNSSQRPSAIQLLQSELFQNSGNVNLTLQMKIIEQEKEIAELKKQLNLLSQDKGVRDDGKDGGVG
T4 sequence (P80192 whole entry): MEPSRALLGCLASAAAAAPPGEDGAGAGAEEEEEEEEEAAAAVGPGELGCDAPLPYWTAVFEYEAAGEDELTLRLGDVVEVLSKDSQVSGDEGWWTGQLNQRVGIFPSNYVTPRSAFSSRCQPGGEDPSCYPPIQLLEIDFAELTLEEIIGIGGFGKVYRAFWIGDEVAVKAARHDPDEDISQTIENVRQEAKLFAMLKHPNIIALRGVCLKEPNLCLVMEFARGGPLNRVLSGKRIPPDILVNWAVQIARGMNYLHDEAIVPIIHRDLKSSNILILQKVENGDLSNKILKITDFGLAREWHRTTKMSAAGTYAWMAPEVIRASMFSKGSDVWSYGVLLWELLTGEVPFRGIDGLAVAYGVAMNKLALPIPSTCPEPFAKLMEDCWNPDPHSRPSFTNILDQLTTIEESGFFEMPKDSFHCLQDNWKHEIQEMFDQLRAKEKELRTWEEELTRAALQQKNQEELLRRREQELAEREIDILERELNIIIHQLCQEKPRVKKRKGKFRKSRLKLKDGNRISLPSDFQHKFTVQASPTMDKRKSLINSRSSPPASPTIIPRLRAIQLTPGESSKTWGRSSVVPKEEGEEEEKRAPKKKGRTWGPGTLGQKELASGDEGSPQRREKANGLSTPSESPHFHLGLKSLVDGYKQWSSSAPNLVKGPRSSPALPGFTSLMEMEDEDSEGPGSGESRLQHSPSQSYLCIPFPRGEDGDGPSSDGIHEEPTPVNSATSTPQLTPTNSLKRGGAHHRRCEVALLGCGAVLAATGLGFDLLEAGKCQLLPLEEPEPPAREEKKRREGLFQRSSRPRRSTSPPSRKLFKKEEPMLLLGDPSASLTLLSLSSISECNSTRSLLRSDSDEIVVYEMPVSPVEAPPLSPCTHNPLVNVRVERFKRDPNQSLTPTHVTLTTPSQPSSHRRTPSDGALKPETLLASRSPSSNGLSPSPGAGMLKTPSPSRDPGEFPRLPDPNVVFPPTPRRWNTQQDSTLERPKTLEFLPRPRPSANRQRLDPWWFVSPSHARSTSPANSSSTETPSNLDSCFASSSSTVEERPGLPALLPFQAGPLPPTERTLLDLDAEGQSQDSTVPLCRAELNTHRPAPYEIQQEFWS

| SMILES | Residual activity (DYRK3; 1.0E-05 M) | Residual activity (DYRK3; 1.0E-06 M) | Residual activity (EIF2AK3; 1.0E-05 M) | Residual activity (EIF2AK3; 1.0E-06 M) | Residual activity (HRI; 1.0E-05 M) | Residual activity (HRI; 1.0E-06 M) | Residual activity (MAP3K9; 1.0E-05 M) | Residual activity (MAP3K9; 1.0E-06 M) | Residual activity (MTOR; 1.0E-05 M) | Residual activity (MTOR; 1.0E-06 M) | inhibition of RAF1 (RAF1 YDYD; 1 µM) | inhibition at 10 µM (RAF1 YDYD) [%] | Residual activity (RAF1 YDYD; 1.0E-05 M) | Residual activity (RAF1 YDYD; 1.0E-06 M) | Residual activity (TAOK3; 1.0E-05 M) | Residual activity (TAOK3; 1.0E-06 M) | inhibition at 1 µM (RAF1 YDYD; 1 µM) [%] |
| --- | --- | --- | --- | --- | --- | --- | --- | --- | --- | --- | --- | --- | --- | --- | --- | --- | --- |
| O=C(Cc1ccccc1)Nc1ccc(F)c(Nc2ccc3c(c2)CCCCC3=O)c1 [Compound 100] | 104 % of control | 98 % of control | 102 % of control | 94 % of control | 123 % of control | 120 % of control | 96 % of control | 102 % of control | 92 % of control | 93 % of control | inhibited considerably | ≥ 50 | 3 % of control | 14 % of control | 98 % of control | 105 % of control |  |
| O=C(Nc1ccc(F)c(Nc2ccc3c(c2)CCCCC3=O)c1)c1cccc(F)c1 [Compound 109] | 88 % of control | 96 % of control | 92 % of control | 93 % of control | 129 % of control | 98 % of control | 103 % of control | 89 % of control | 94 % of control | 94 % of control |  | ≥ 50 | 12 % of control | 36 % of control | 91 % of control | 99 % of control | ≥ 50 |
